From PMC2954222, “The structure of Haemophilus influenzae prephenate dehydrogenase suggests unique features of bifunctional TyrA enzymes” (Acta Crystallographica Section F: Structural Biology and …, 2010)

Target: T1, HinfPDH (prephenate dehydrogenase component of chorismate mutase/prephenate dehydrogenase TyrA) (Haemophilus influenzae, UniProt P43902)
T1 construct: prephenate dehydrogenase domain, residues 81-377 (Met1-Phe80 excluded); N-terminal His tag removed by TEV, leaving Gly; selenomethionine-labelled; expressed in E. coli; dimer
Assay: X-ray crystal structure, […] A
Assay type: binding
Settings: ligand acquired during expression in E. coli, not added

T1 sequence (P43902 81-377): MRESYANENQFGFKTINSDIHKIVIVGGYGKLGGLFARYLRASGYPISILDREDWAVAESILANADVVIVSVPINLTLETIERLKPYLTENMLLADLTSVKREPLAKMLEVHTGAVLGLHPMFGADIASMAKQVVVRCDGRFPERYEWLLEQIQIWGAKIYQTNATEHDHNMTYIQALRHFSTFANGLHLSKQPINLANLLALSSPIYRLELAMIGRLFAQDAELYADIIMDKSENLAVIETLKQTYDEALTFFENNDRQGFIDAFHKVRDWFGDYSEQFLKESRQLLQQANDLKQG

SMILES	X-ray crystal structure, 2.0 A (ternary complex with tyrosine, cofactor site)	X-ray crystal structure, 2.0 A (ternary complex with NAD+, active site, competitive mode only inferred)
NC(=O)c1ccc[n+]([C@@H]2O[C@H](COP(=O)(O)OP(=O)(O)OC[C@H]3O[C@@H](n4cnc5c(N)ncnc54)[C@H](O)[C@@H]3O)[C@@H](O)[C@H]2O)c1 [NAD^+]	One tyrosine and one NAD^+ are bound in each monomer	
N[C@@H](Cc1ccc(O)cc1)C(=O)O [tyrosine]		could be unambiguously assigned to a tyrosine molecule and an NAD^+ cofactor
